Converted amounts (≈) assume the structure as drawn. Where two headings read alike, the source gives them in different places.
Assays:
[1] = test system: AH 130 (tumor cells of liver cancer of a rat); assay: Carcinostatic effect against AH 130 (tumor cells of liver cancer of a rat), and toxicity (Example 5); type: in vivo; conditions: for ratio of tumor in wt.: seven days, Control 1.00
Protocol: To further show the advantageous effects of 3-N-o-toluyl-5-FU of the present invention over related compounds known in the art, such as FT-207 and 5-FU, tests were conducted in accordance with the procedures as described below and the results are presented in Tables 3 and 4.
Rats were separated into 7 groups of 10 rats. AH 130, having an initial cell number of 5×10^5, was injected hypodermically into each subject and, after 24 hours, each composition was given to each subject rat at the dose shown in Table 4 for seven (7) consecutive days. On the 10th day from the initial innoculation, each subject was anatomized to examine the tumor weight, the average of which was compared with that of the non-treated Control. In this test, 3-N-o-toluyl-5-FU was also administered orally in the form of powder as in the former test.

[2] = test system: Sarcoma 180; assay: Carcinostatic effect against Sarcoma 180 of a mouse, and toxicity (Example 5); type: in vivo; conditions: for toxicity: general debility, decrease in weight and napping; for ratio of tumor in wt.: seven days, Control 1.00
Protocol: Mice were separated into 7 groups of 10 mice. Sarcoma 180, having an initial cell number of 5×10^5, was innoculated hypodermically into each subject. After 24 hours, each composition was given to the subject mouse, except the Control, at the dose as shown in Table 3 for seven (7) consecutive days. On the tenth day from the initial innoculation, each subject was anatomized to examine the tumor weight, the average of which was then compared with that of the Control. Toxicity was also interpreted in view of general debility, decrease in weight and napping. In this test, 3-N-o-toluyl-5-FU was administered orally in the form of powder mixed with water, which was isolated by chromatography from that in oil emulsion.

[3] = test system: human thyroid cancer cells; assay: growth inhibition of human thyroid cancerous cells in culture (Example 7); type: cell-based; conditions: for IC50 / MIC: Homo sapiens, 72 h; for IC50: dose per unit volume effective for 50% of the cells, read-out: ED50 (the source's name)
Excerpt: (§1) Included in Tables 5 through 7 for comparison are carcinostatic effect of 3-N-o-toluyl-5-FU on various kinds of cancerous cells. In these tables, MIC represents minimum inhibitory concentration (γ or microgram/ml) required to inhibit the growth of cancerous cells in a culture medium and ED50 (γ or microgram/ml) represents the dose per unit volume effective for 50% of the cells.
(2) Human thyroid cancerous cells; and
(§2) Each kind of said cancerous cells, having an initial number of 3×10^4 and 4×10^4 was cultured in a nutrient medium on a slide glass in a flat bottle for 24 hours to make more than one sample, respectively; half for 5-FU and the other for 3-N-o-toluyl-5-FU in oil emulsion. Then 5-FU diluted with water of different concentrations and 3-N-o-toluyl-5-FU in oil emulsion of different concentrations was respectively added to the cells of each of said plate to make several different concentrations of said compounds per unit volume of each cell, and the culture was continued for three days. The manner of the action of each of said compounds against each of the cells at different concentrations (weight per unit volume of cell) was observed by an inverted phase contrast microscope with the passage of time, as well as the multiplication and the change in morphology of the cells were examined by fixing and staining the cells on the slide glass after a period of three days. As a nutrient medium, MEM S10 or HAM-F S10 was employed. HAM-F S10 is a 10% serum supplemented medium described by Richard G. Ham in 1964, and is sold under the tradename "HAM F12 Nissui" in Japan.
(§3) The molecular weight of 5-FU is about 130 and that of 3-N-o-toluyl-5-FU is about 248. […] Accordingly, as used in the following explanations, the terms "weight concentration" refers to the γgm/ml of each compound used in a given test, and the term "molarity" generally refers to the number of molecules of each compound present in a given amount used in a test.

[4] = side-effects on normal cells, mouse foot pad cells (Example 9); type: cell-based; conditions: mouse, foot pad cells; for cytotoxicity: MIC for Ehlrich cancerous cells versus ED50 for normal cells, read-out: normal cells damaged at the minimum dose inhibiting multiplication of the cancerous cells; for CC50 at 72 h: Table 8, normal cells, procedures of Examples 6-8, read-out: ED50
Protocol: as §2
(§4) Using the same procedures as in Examples 6-8, it was investigated whether the compound of the invention causes side-effects on normal cells.
(§5) ED50 for normal cells mean that this dose will inhibit the normal propagation of 50% of unattacked cells (that is, it may cause a harmful influence upon normal cells), while MIC for cancerous cells means that this dose will inhibit the multiplication of 100% of cancerous cells. Consequently when MIC of a compound for cancerous cells exceeds ED50 of the same for normal cells, it is considered that this compound must have side-effects.

[5] = test system: mouse foot pad cells; assay: as above; type: cell-based; conditions: for MIC: Mus musculus, 72 h, Table 8, normal cells, procedures of Examples 6-8
Protocol: as §2, §4, §5

[6] = test system: Leiomyosarcoma cells; assay: growth inhibition of leiomyosarcoma cells in culture (Example 8); type: cell-based, human; conditions: for IC50 / MIC: Homo sapiens, 72 h; for IC50: dose per unit volume effective for 50% of the cells, read-out: ED50 (the source's name)
Excerpt: as §1
(3) Leiomyosarcoma cells of human.
as §2, §3

[7] = test system: Ehrich cancerous cells; assay: growth inhibition of Ehrich cancerous cells in culture (Example 6); type: cell-based, mouse; conditions: for MIC / IC50: Mus musculus, 72 h; for IC50: Ehrlich, dose per unit volume effective for 50% of the cells, read-out: ED50 (the source's name)
Protocol: Cancerous cells employed:
(1) Ehrich cancerous cells of mouse;
Each kind of said cancerous cells, having an initial number of 3×10^4 and 4×10^4 was cultured in a nutrient medium on a slide glass in a flat bottle for 24 hours to make more than one sample, respectively; half for 5-FU and the other for 3-N-o-toluyl-5-FU in oil emulsion. Then 5-FU diluted with water of different concentrations and 3-N-o-toluyl-5-FU in oil emulsion of different concentrations was respectively added to the cells of each of said plate to make several different concentrations of said compounds per unit volume of each cell, and the culture was continued for three days. […] As a nutrient medium, MEM S10 or HAM-F S10 was employed.

[8] = test system: cancerous and tumorous cells; assay: tests of carcinostatic effect (several tests including a biological test); conditions: high dose sometimes leads to less effect than a low dose
Excerpt: The present invention relates to carcinostatic compounds and compositions and a process for producing the same chiefly containing 5-fluorouracil derivatives (hereinafter referred to as 5-FU). 5-FU and its various derivatives are known to act as carcinostatic agents which disrupt cancerous cells or depress the multiplication thereof. […] That is to say, in spite of the fact that a remarkable carcinostatic effect was achnowledged using a low dose, a high dose sometimes leads to less carcinostatic effects than a low dose. […] In general, it can be easily presumed that these acylated 5-FU compounds, having the substituent group of NH, are to be obtained in acylation with the reagents represented by the general formula such as RCOX, wherein R represents an acyl group and X is halogen and (RCO)2 O, wherein R is an acyl group. However, 3-N-acyl-5-FU cannot be obtained directly from 5-FU because the acylation will preferably occur at the 1-position of 5-FU when 5-FU is reacted with the reagents under normal conditions. […]
In addition, the composition has many other advantageous features, e.g., only a low dose is necessary to be effective so that harmful side-effects are avoided as regards the normal cells. […] Furthermore, it is believed that the 5-FU ring is readily incorporated into RNA as a substituent for uracil. […]

[9] = 90 mg/kg daily, total 630 mg/kg
[10] = 200 mg/kg daily, total 1400 mg/kg
[11] = 100 mg/kg daily, total 700 mg/kg
[12] = Table 6, minimum inhibitory concentration, three days, read-out: MIC
[13] = 30 mg/kg daily, total 210 mg/kg
[14] = Table 7, minimum inhibitory concentration, three days, read-out: MIC
[15] = Tables 3 and 4 (Sarcoma 180 mice and AH 130 rats)
[16] = Example 9, read-out: MIC for Ehrich cancerous cells
[17] = Table 5, minimum inhibitory concentration, three days, read-out: MIC

Row | SMILES | toxicity [2, 11] | ratio of tumor in wt. [2, 11] | IC50 ([3]; Table 6, three days) [µg/mL] | MIC [3, 12] [µg/mL] | cytotoxicity [4] [%] | CC50 at 72 h [4] [µg/mL] | MIC [5] [µg/mL] | toxicity [1, 13] | ratio of tumor in wt. [1, 13] | IC50 ([6]; Table 7, three days) [µg/mL] | MIC [6, 14] [µg/mL] | toxic side-effects with increasing amount administered [2, 15] | MIC [7, 16] [µg/mL] | MIC [7, 17] [µg/mL] | IC50 ([7]; Table 5, three days) [µg/mL] | other results
1 | O=c1[nH]c(=O)n(C2CCCO2)cc1F (centres unmarked) [FT-207] | - | 0.516 |  |  |  |  |  |  |  |  |  |  |  |  |  | toxicity [1, 9]: -; ratio of tumor in wt. [1, 9]: 0.60; toxicity [1, 10]: +; ratio of tumor in wt. [1, 10]: 0.35; toxicity [2, 10]: +; ratio of tumor in wt. [2, 10]: 0.418; toxic side-effects with increasing amount administered ([2]; mouse, in vivo): increasing the amount of the compound administered produces toxic results
2 | Cc1ccccc1C(=O)n1c(=O)[nH]cc(F)c1=O [3-N-o-toluyl-5-FU, 3-N-o-toluyl-5-fluorouracil] | - | 0.367 | 0.6 (≈ 2.42 µM) | 1.25 (≈ 5.04 µM) | < 50 | 2.5 (≈ 10.1 µM) | 10 (≈ 40.3 µM) | - | 0.84 | 0.3 (≈ 1.21 µM) | 1.25 (≈ 5.04 µM) | does not produce toxic side-effects | 2 (≈ 8.06 µM) | 2 (≈ 8.06 µM) | 1 (≈ 4.03 µM) | dose in weight concentration for carcinostatic effects, compared with 5-FU ([3]; Table 6): less than half the dose in weight concentration than that of 5-FU; side-effects compared with 5-FU ([5]; MIC for Ehrich cancerous cells versus ED50 for normal cells): less side-effects than 5-FU; toxicity [1, 11]: -; ratio of tumor in wt. ([1]; 100 mg/kg daily, total 700 mg/kg, oral powder): 0.35; carcinostatic efficacy compared with 5-FU ([6]; weight concentration, Table 7): considerably superior to 5-FU; toxicity ([2]; 50 mg/kg daily, total 350 mg/kg): -; ratio of tumor in wt. ([2]; 50 mg/kg daily, total 350 mg/kg, oral powder mixed with water): 0.550; number of molecules for ED50 relative to 5-FU ([7]; number of molecules as reference standard): half that of 5-FU; MIC compared with 5-FU ([7]; weight concentration and molarity): apparently superior to 5-FU in both weight concentration and molarity
3 | O=c1[nH]cc(F)c(=O)[nH]1 [5-FU, 5-fluorouracil] |  |  | 1.25 (≈ 9.61 µM) | 2.5 (≈ 19.2 µM) | 50 | 2.5 (≈ 19.2 µM) | 10 (≈ 76.9 µM) | + | 0.55 | 1.25 (≈ 9.61 µM) | 2.5 (≈ 19.2 µM) | increasing the amount of the compound administered produces toxic results | 2.5 (≈ 19.2 µM) | 2.5 (≈ 19.2 µM) | 1 (≈ 7.69 µM) | MIC ([3]; Table 9, read-out: MIC (human thyroid cancerous cells)): 2.5 µg/mL (≈ 19.2 µM); toxicity ([1]; 10 mg/kg daily, total 70 mg/kg): -; ratio of tumor in wt. ([1]; 10 mg/kg daily, total 70 mg/kg): 0.72; MIC ([6]; Table 9, read-out: MIC (leiomysarcoma)): 2.5 µg/mL (≈ 19.2 µM); toxicity ([2]; 10 mg/kg daily, total 70 mg/kg): -; ratio of tumor in wt. ([2]; 10 mg/kg daily, total 70 mg/kg): 0.840; toxicity [2, 13]: +; ratio of tumor in wt. [2, 13]: 0.540; MIC ([7]; Table 9 and text, read-out: MIC (Elrich cancerous cells)): 2.5 µg/mL (≈ 19.2 µM)
4 | Cc1ccccc1C(=O)n1cc(F)c(=O)n(C(=O)c2ccccc2C)c1=O [1,3-di-N-o-toluyl-5-FU] |  |  |  |  |  |  |  |  |  |  |  |  |  |  |  | carcinostatic effect, stability of the effect [8]: extremely unstable

Reference: patent publication US4196202A, “Carcinostatic composition containing 3-N-o-toluyl-5-fluorouracil producing the same” (priority 1977, dated 1980)
